According to paper PMC12587545, “Noncytotoxic polymyxin derivatives enhance antibiotic action against multidrug-resistant Gram-negative bacteria” (Antimicrobial Agents and Chemotherapy, 2025):
Several values for one entry are separate records, joined by “and”; a condition that tells them apart may be missing. Equal entries are not always repeated. Where two headings read alike, the source gives them in different places.

Columns and labels:
P. aeruginosa = experiment: Checkerboard assay (antibiotic potentiation); type: cell-based, Pseudomonas aeruginosa
A. baumannii = experiment: Checkerboard assay (antibiotic potentiation); type: cell-based, Acinetobacter baumannii; details: for MICantibiotic: antibiotic alone
[1] = P. aeruginosa 262-101856, antibiotic + compound 1
[2] = P. aeruginosa 264-105354, antibiotic + compound 1
[3] = P. aeruginosa PAO1, 0% FBS, zoliflodacin + compound 1
[4] = P. aeruginosa PAO1, [Mg2+] 0.4–0.5 mM, zoliflodacin + compound 1
[5] = P. aeruginosa PAO1, antibiotic + compound 1
[6] = A. baumannii 110193, antibiotic + compound 1

With `C[C@@H]1CN2c3c(cc4c(N5C(=O)OC[C@@H]5C)noc4c3F)CC3(C(=O)NC(=O)NC3=O)[C@H]2[C@H](C)O1` [Zoliflodacin] the Interpretation (P. aeruginosa; P. aeruginosa 259-96916, antibiotic + compound 1) was “Synergy (FIC indices of ≤0.5 is synergistic)”, the “MICantibiotic + compound” value (P. aeruginosa; P. aeruginosa 259-96916, antibiotic MIC with 8 µg/mL (5 µM) compound 1) was 0.125 µg/mL and the MICantibiotic (P. aeruginosa; P. aeruginosa 259-96916, antibiotic alone) was 128 µg/mL. For the same molecule, the Potentiation (P. aeruginosa; P. aeruginosa 259-96916, of antibiotic by 8 µg/mL (5 µM) compound 1) was ≥1024-fold, the FIC index (P. aeruginosa; [1]) was “x < 0.078” and the Interpretation (P. aeruginosa; [1]) was “Synergy (FIC indices of ≤0.5 is synergistic)”. The “MICantibiotic + compound” value (P. aeruginosa; P. aeruginosa 262-101856, antibiotic MIC with 8 µg/mL (5 µM) compound 1) was 2 µg/mL, the MICantibiotic (P. aeruginosa; P. aeruginosa 262-101856, antibiotic alone) was over 128 µg/mL and the Potentiation (P. aeruginosa; P. aeruginosa 262-101856, of antibiotic by 8 µg/mL (5 µM) compound 1) was ≥128-fold. The FIC index (P. aeruginosa; [2]) was “x < 0.066”, the Interpretation (P. aeruginosa; [2]) was “Synergy (FIC indices of ≤0.5 is synergistic)” and the “MICantibiotic + compound” value (P. aeruginosa; P. aeruginosa 264-105354, antibiotic MIC with 8 µg/mL (5 µM) compound 1) was 0.5 µg/mL. For the same molecule, the MICantibiotic (P. aeruginosa; P. aeruginosa 264-105354, antibiotic alone) was over 128 µg/mL, the Potentiation (P. aeruginosa; P. aeruginosa 264-105354, of antibiotic by 8 µg/mL (5 µM) compound 1) was ≥512-fold and the “MICantibiotic + compound” value (P. aeruginosa; P. aeruginosa 101243 (colistin-resistant), antibiotic MIC with 8 µg/mL (5 µM) compound 1) was over 128 µg/mL. For the same molecule, the MICantibiotic (P. aeruginosa; P. aeruginosa 101243 (colistin-resistant), antibiotic alone) was over 128 µg/mL, the “MICantibiotic + compound” value (P. aeruginosa; P. aeruginosa 114228 (colistin-resistant), antibiotic MIC with 8 µg/mL (5 µM) compound 1) was over 128 µg/mL and the MICantibiotic (P. aeruginosa; P. aeruginosa 114228 (colistin-resistant), antibiotic alone) was over 128 µg/mL. For the same molecule, the Potentiation (P. aeruginosa; P. aeruginosa PAO1, 0% FBS, of zoliflodacin by 8 µg/mL (5 µM) compound 1) was ≥32-fold, the FIC index (P. aeruginosa; [3]) was “x < 0.125” and the Interpretation (P. aeruginosa; [3]) was “Synergy (FIC indices of ≤0.5 is synergistic)”. The “MICantibiotic + compound” value (P. aeruginosa; P. aeruginosa PAO1, 0% FBS, zoliflodacin MIC with 8 µg/mL (5 µM) compound 1) was 8 µg/mL, the MICantibiotic (P. aeruginosa; P. aeruginosa PAO1, 0% FBS, zoliflodacin alone) was over 128 µg/mL and the Potentiation (P. aeruginosa; P. aeruginosa PAO1, 10% FBS, of zoliflodacin by 8 µg/mL (5 µM) compound 1) was 64 fold. For the same molecule, the Interpretation (P. aeruginosa; P. aeruginosa PAO1, 10% FBS, zoliflodacin + compound 1) was “Synergy (FIC indices of ≤0.5 is synergistic)”, the “MICantibiotic + compound” value (P. aeruginosa; P. aeruginosa PAO1, 10% FBS, zoliflodacin MIC with 8 µg/mL (5 µM) compound 1) was 8 µg/mL and the MICantibiotic (P. aeruginosa; P. aeruginosa PAO1, 10% FBS, zoliflodacin alone) was 512 µg/mL. For the same molecule, the Potentiation (P. aeruginosa; P. aeruginosa PAO1, 25% FBS, of zoliflodacin by 8 µg/mL (5 µM) compound 1) was 1 fold, the Interpretation (P. aeruginosa; P. aeruginosa PAO1, 25% FBS, zoliflodacin + compound 1) was “Additive (0.5 < × ≤ 4 is additive)” and the “MICantibiotic + compound” value (P. aeruginosa; P. aeruginosa PAO1, 25% FBS, zoliflodacin MIC with 8 µg/mL (5 µM) compound 1) was 1024 µg/mL. The MICantibiotic (P. aeruginosa; P. aeruginosa PAO1, 25% FBS, zoliflodacin alone) was 1024 µg/mL, the Potentiation (P. aeruginosa; P. aeruginosa PAO1, 50% FBS, of zoliflodacin by 8 µg/mL (5 µM) compound 1) was 1 fold and the Interpretation (P. aeruginosa; P. aeruginosa PAO1, 50% FBS, zoliflodacin + compound 1) was “Additive (0.5 < × ≤ 4 is additive)”. For the same molecule, the “MICantibiotic + compound” value (P. aeruginosa; P. aeruginosa PAO1, 50% FBS, zoliflodacin MIC with 8 µg/mL (5 µM) compound 1) was 1024 µg/mL, the MICantibiotic (P. aeruginosa; P. aeruginosa PAO1, 50% FBS, zoliflodacin alone) was 1024 µg/mL and the Potentiation (P. aeruginosa; P. aeruginosa PAO1, [Mg2+] 25 mM, of zoliflodacin by 8 µg/mL (5 µM) compound 1) was 1 fold. For the same molecule, the Interpretation (P. aeruginosa; P. aeruginosa PAO1, [Mg2+] 25 mM, zoliflodacin + compound 1) was “Additive (0.5 < × ≤ 4 is additive)”, the “MICantibiotic + compound” value (P. aeruginosa; P. aeruginosa PAO1, [Mg2+] 25 mM, zoliflodacin MIC with 8 µg/mL (5 µM) compound 1) was 1024 µg/mL and the MICantibiotic (P. aeruginosa; P. aeruginosa PAO1, [Mg2+] 25 mM, zoliflodacin alone) was 1024 µg/mL. The Potentiation (P. aeruginosa; P. aeruginosa PAO1, [Mg2+] 0.4–0.5 mM, of zoliflodacin by 8 µg/mL (5 µM) compound 1) was ≥32-fold, the FIC index (P. aeruginosa; [4]) was “x < 0.125” and the Interpretation (P. aeruginosa; [4]) was “Synergy (FIC indices of ≤0.5 is synergistic)”. For the same molecule, the “MICantibiotic + compound” value (P. aeruginosa; P. aeruginosa PAO1, [Mg2+] 0.4–0.5 mM, zoliflodacin MIC with 8 µg/mL (5 µM) compound 1) was 8 µg/mL, the MICantibiotic (P. aeruginosa; P. aeruginosa PAO1, [Mg2+] 0.4–0.5 mM, zoliflodacin alone) was over 128 µg/mL and the FIC index (P. aeruginosa; [5]) was “x < 0.125”. The Interpretation (P. aeruginosa; [5]) was “Synergy (FIC indices of ≤0.5 is synergistic)”, the Interpretation (P. aeruginosa; P. aeruginosa PAO1, antibiotic + compound 3) was “Additive (0.5 < × ≤ 4 is additive)” and the “MICantibiotic + compound” value (P. aeruginosa; P. aeruginosa PAO1, antibiotic MIC with 8 µg/mL (5 µM) compound 1) was 8 µg/mL. For the same molecule, the “MICantibiotic + compound” value (P. aeruginosa; P. aeruginosa PAO1, antibiotic MIC with 8 µg/mL (5 µM) compound 3) was 128 µg/mL, the MICantibiotic (P. aeruginosa; P. aeruginosa PAO1, antibiotic alone) was 128 µg/mL and >128 µg/mL and the Potentiation (P. aeruginosa; P. aeruginosa PAO1, of antibiotic by 8 µg/mL (5 µM) compound 1) was ≥32-fold. The Potentiation (P. aeruginosa; P. aeruginosa PAO1, of antibiotic by 8 µg/mL (5 µM) compound 3) was 1 fold, the “MICantibiotic + compound” value (A. baumannii) was 0.031 µg/mL and the Potentiation (A. baumannii) was ≥128-fold. The Interpretation (A. baumannii; A. baumannii 92247 (colistin-resistant), antibiotic + compound 1) was “Synergy (FIC indices of ≤0.5 is synergistic)”, the “MICantibiotic + compound” value (A. baumannii; A. baumannii 92247 (colistin-resistant), antibiotic MIC with 4 µg/mL (2 µM) compound 1) was 0.25 µg/mL and the MICantibiotic (A. baumannii; A. baumannii 92247 (colistin-resistant)) was 4 µg/mL. For the same molecule, the Potentiation (A. baumannii; A. baumannii 92247 (colistin-resistant), of antibiotic by 4 µg/mL (2 µM) compound 1) was ≥16-fold, the FIC index (A. baumannii; [6]) was 0.156 and the Interpretation (A. baumannii; [6]) was “Synergy (FIC indices of ≤0.5 is synergistic)”. The “MICantibiotic + compound” value (A. baumannii; A. baumannii 110193, antibiotic MIC with 4 µg/mL (2 µM) compound 1) was 8 µg/mL, the MICantibiotic (A. baumannii; A. baumannii 110193) was 256 µg/mL and the Potentiation (A. baumannii; A. baumannii 110193, of antibiotic by 4 µg/mL (2 µM) compound 1) was 32 fold. For the same molecule, the Interpretation (A. baumannii; A. baumannii AB027, antibiotic + compound 1) was “Synergy (FIC indices of ≤0.5 is synergistic)”, the “MICantibiotic + compound” value (A. baumannii; A. baumannii AB027, antibiotic MIC with 4 µg/mL (2 µM) compound 1) was 0.25 µg/mL and the MICantibiotic (A. baumannii; A. baumannii AB027) was 16 µg/mL. For the same molecule, the Potentiation (A. baumannii; A. baumannii AB027, of antibiotic by 4 µg/mL (2 µM) compound 1) was 64 fold.
